# In patent US20220211861A1, “DRUG CONJUGATES AND METHODS OF USING SAME” (The Board of Trustees of the Leland Staford Junior …, priority 2019, published 2022):
# *1 amine or outer side, *2 acyl side, *3 side chain or, on linkers, in order; H or OH if unused. Where a SMILES comes first, the peptide text is derived from it. Bridges are numbered along the chain shown (N, C = ends). Roman numbers before positions name the chains, in order. [ ]: non-standard residue; d: D form. The star is where a group is joined. X1 = O=C([C@H](CCCn1nnc2c1-c1ccccc1CN([*:3])c1ccccc1-2)N[*:1])[*:2]; Dolaproine = CO[C@@H]([C@@H]1CCCN1)[C@@H](C)C(=O)O; X3 = O=C(CCC(=O)[*:1])NCCOCCOCCOCCC(=O)[*:2]; Dil = CC[C@H](C)[C@H](NC)[C@@H](CC(=O)O)OC; PABC = O=C(OCc1ccc(N[*:1])cc1)[*:2]; X2 = C[C@@H](N*)[C@@H](O)c1ccccc1; Cit = NC(=O)NCCC[C@H](N)C(=O)O; NMeV = CN[C@H](C(=O)O)C(C)C
# Tests used:
# [1] = test system: RFP-expressing U87MG tumor spheroids; test: Cell spheroid killing assay over time (IncuCyte); type: cell-based
# Procedure: Next, this in vitro model was modified to test if similar cell killing could be visualized in addition to confocal imaging experiments. Spheroids were treated with drug conjugates or MMAE at a range of concentrations. After incubating with drug conjugates for 5 d, media was replaced with fresh media containing SYTOX green. Fluorescence measured by a BioTek Synergy H4 microtiter plate reader was compared to spheroids treated with lysis buffer. […] To visualize this killing over time, spheroids treated with 50 or 100 nM of drug conjugates or MMAE were imaged every 4 h using an IncuCyte.
# Spheroids of RFP-expressing U87MG cells were formed by seeding round-bottom, 96-well ultra-low adhesion plates (Corning) with 4×10^3 cells/well and centrifuging at 1000×g for 10 minutes. Spheroids were grown for 2 days before replacing media with 200 μL of fresh media containing 10 nM Cytox Green (ThermoFisher) and 0, 50, or 100 nM KDC, KFDC, KADC, or MMAE. Spheroids were incubated in an IncuCyte S3 Live-Cell Analysis System for 5 d with images collected every 4 h.
# [2] = test system: RFP-expressing U87MG cells; test: Inhibition of cell proliferation and cytotoxicity over time (IncuCyte, SYTOX green); type: cell-based; details: only 3 h of exposure
# Procedure: To assess the activity of each drug conjugate in a model more representative of in vivo therapy, a similar assay was set up incubating RFP-expressing U87MG cells with SYTOX green and imaging every 4 h. After several time points, cells were washed and media was replaced with either fresh, drug-containing media or fresh, drug-free media (FIG. 14). All conjugates maintained high potency and inhibited proliferation after only 24 h exposure (FIG. 14B). […] The inhibition of cellular proliferation mirrored the measured cytotoxicity. All conjugates induced nearly 100% cell death when incubated without washing, with a wash of drug-containing media, or with washing after 24 h (FIG. 14D, 14E). Each construct was also evaluated under an even more stringent condition, with washing after 3 h of exposure. […] KFDC and KADC experienced substantial reductions in their respective potencies and each inhibited ˜50% of cell proliferation.
# RFP-expressing U87MG cells were seeded in a 96-well plate (Corning) at a density of 2.5×10^3 cells per well and grown overnight. Cells were then treated with 200 μL of fresh media containing 10 nM Cytox Green (ThermoFisher) and KDC, KFDC, KADC, or MMAE, at the approximate ED50 of 10 nM or at the saturating concentration of 100 nM. Cells were incubated in an IncuCyte S3 Live-Cell Analysis System for 5 d with images collected every 4 h. […]
# U87MG cells = test: Indirect (competition) binding assay displacing Alexa Fluor 488-labeled knottin; details: competing off 1 nM AF488-2.5F on U87MG cells
# Procedure: The binding affinity of the constructs described in Example 1 were measured using U87MG glioblastoma cells. Drug-free protein affinities were measured directly using Alexa Fluor 488-conjugaed proteins and drug conjugates were measured via a competition binding assay displacing Alexa Fluor 488-labeled K. All constructs tested bound to U87MG cells with low-nanomolar affinity (FIG. 9A-B).
# U87MG cells were detached using Enzyme-Free Cell Dissociation Buffer (Gibco). Next, 4×10^4 cells were incubated with 1 nM of Alexa Fluor 488 labeled knottin as a competitor and varying concentrations (0.01-500 nM) of KDC, KFDC, or KADC in IBB for 3 h at 4° C. to minimize internalization. Cells were pelleted and washed twice with 800 μL of PBSA (phosphate buffered saline containing 0.1% bovine serum albumin) and the fluorescence of remaining surface-bound protein was measured by flow cytometry using a Guava EasyCyte 8HT instrument (EMD Millipore). Resulting data were evaluated using FlowJo software (TreeStar Inc) and equilibrium dissociation constants (Kd) were determined using Prism software (GraphPad). Error bars represent the standard deviation of experiments performed in triplicate.
# [3] = test system: RFP-expressing U87MG spheroids; test: Confocal imaging of diffusion into tumor spheroids; type: cell-based; details: multiple z-heights
# Procedure: To verify this mechanism, an in-vitro setup was constructed to test and visualize differences in solid tumor diffusion. Solid tumor spheroids of RFP-expressing U87MG glioblastoma cells were grown in ultra-low adhesion 96-well plates. Spheroids were grown to until reaching a diameter of ˜750 μm then treated with 200 nM of AF488-labeled KDC, KFDC, or KADC and incubated for 4 h. […]
# To obtain a more quantitative comparison, the relative decay of green channel intensity was compared to red channel intensity from the constitutively expressed RFP. Because the red channel should be uniform, due to stable RFP expression, and is only attenuated by the optical density of the spheroid, this signal intensity was used to correct the signal intensity of the green channel.
# Spheroids of RFP-expressing U87MG cells were formed by seeding round-bottom, 96-well ultra-low adhesion plates (Corning) with 4×10^3 cells/well and centrifuging at 1000×g for 10 minutes. Spheroids were grown for 4 days, until reaching a diameter of 750 μm. Spheroids were then incubated in fresh media containing 200 nM of Alexa Fluor 488-conjugated KDC, KFDC, or KADC for 4 h. […] Quantification was performed using FIJI image analysis software. Intensity was calculated radially from the center of each spheroid and plotted as the relative ratio of green intensity corrected for the intensity of RFP as an attenuation control.
compound,measurement,setting,value
"CC[C@H](C)[C@@H]([C@@H](CC(=O)N1CCC[C@H]1[C@H](OC)[C@@H](C)C(=O)N[C@H](C)[C@@H](O)c1ccccc1)OC)N(C)C(=O)[C@@H](NC(=O)[C@H](C(C)C)N(C)C(=O)OCc1ccc(NC(=O)[C@H](CCCNC(N)=O)NC(=O)[C@@H](NC(=O)CCOCCOCCOCCNC(=O)CCC(=O)N2Cc3ccccc3-c3c(nnn3CCC[C@@H]3NC(=O)[C@@H]4CSSC[C@@H]5NC(=O)[C@H](C(C)C)NC(=O)[C@H](CSSC[C@H](NC(=O)CN)C(=O)N6CCC[C@H]6C(=O)N[C@@H](CCCNC(=N)N)C(=O)N6CCC[C@H]6C(=O)N[C@@H](CCCNC(=N)N)C(=O)NCC(=O)N[C@@H](CC(=O)O)C(=O)N[C@@H](CC(N)=O)C(=O)N6CCC[C@H]6C(=O)N6CCC[C@H]6C(=O)N[C@@H](CC(C)C)C(=O)N[C@@H]([C@@H](C)O)C(=O)N4)NC(=O)CNC(=O)[C@H](C)NC(=O)[C@H](CC(C)C)NC(=O)[C@H](CSSC[C@@H](C(=O)NCC(N)=O)NC(=O)[C@H](Cc4ccc(O)cc4)NC(=O)CNC(=O)[C@H](CC(N)=O)NC(=O)[C@@H]4CCCN4C(=O)CNC5=O)NC(=O)[C@H](CC(=O)O)NC(=O)[C@H](CO)NC(=O)[C@H](CC(=O)O)NC(=O)[C@H](CCC(N)=O)NC3=O)-c3ccccc32)C(C)C)cc1)C(C)C [KDC] (I: H-GCPRPRGDNPPLTC[X1]QDSDCLAGCVCGPNGYCG-NH2 / II: V[Cit][PABC][NMeV]V[Dil][Dolaproine]-X2; disulfide I:2-I:24, I:14-I:26, I:20-I:32; linker I:15-II:N via X3; N-terminus assumed)",spheroid toxicity,"[1]; 50 or 100 nM, imaged every 4 h",~100%
same,potency when co-administered with unconjugated knottin,[1]; drug conjugate plus unconjugated knottin,equivalently effective with or without addition of unconjugated knottin
same,inhibition of proliferation,[2],complete cell inhibition
same,Ki,U87MG cells,0.9 nM
same,green intensity in the center of each optical slice as a function of depth,[3],remains relatively constant
